From patent publication US5440016A, “Peptides of the formula (KFmoc) ZZZ and their uses” (priority 1993, dated 1995)
Square brackets hold non-standard residues; d marks the D form. Ends that are not written are not given here. Peptide text beside a SMILES is read from it. * marks the point of attachment. Fmoc = O=C(OCC1c2ccccc2-c2ccccc21)*; GABA = NCCCC(=O)O

The compounds below were run against melittin (Apis mellifera, UniProt P01501) (assay: cell-based). Settings: read-out: IC50, inhibition of melittin (converted).
Sequence of melittin (P01501 44-69 limits assumed): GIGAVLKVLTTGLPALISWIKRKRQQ
With Ac-FDIWFE-NH2 [Ac-FDIWFE-NH2] the IC50 was 185 µM. Ac-FDIWFK-NH2 [Ac-FDIWFK-NH2] gave an IC50 of 128 µM. With Ac-FDIYCE-NH2 [Ac-FDIYCE-NH2] the IC50 was 229 µM. Ac-FDIYFE-NH2 [Ac-FDIYFE-NH2] gave an IC50 of 1050 µM. With Ac-FIIWCE-NH2 [Ac-FIIWCE-NH2] the IC50 was 4 µM. With Ac-FIIWFE-NH2 [Ac-FIIWFE-NH2] the IC50 was 6.03 µM. In the case of Ac-FIIWFK-NH2 [Ac-FIIWFK-NH2], the IC50 is reported as 1450 µM. In the case of Ac-FIIYCE-NH2 [Ac-FIIYCE-NH2], the IC50 is reported as 5.68 µM. Ac-FIIYFE-NH2 [Ac-FIIYFE-NH2] was tested, and the IC50 was 7.8 µM. For Ac-FIIYFK-NH2 [Ac-FIIYFK-NH2], the IC50 was 419 µM. In the case of Ac-FQIWCE-NH2 [Ac-FQIWCE-NH2], the IC50 is reported as 10.9 µM. Compound Ac-FQIWFE-NH2 [Ac-FQIWFE-NH2] has an IC50 of 9.01 µM. Ac-FQIYCE-NH2 [Ac-FQIYCE-NH2] showed an IC50 of 16.6 µM. For Ac-FQIYFE-NH2 [Ac-FQIYFE-NH2], the IC50 was 21.4 µM. With Ac-IDIWCE-NH2 [Ac-IDIWCE-NH2] the IC50 was 978 µM. Ac-IDIWCK-NH2 [Ac-IDIWCK-NH2] gave an IC50 of 130 µM. In the case of Ac-IDIYCE-NH2 [Ac-IDIYCE-NH2], the IC50 is reported as 361 µM. Work on Ac-IDIYFE-NH2 [Ac-IDIYFE-NH2] yielded an IC50 of 355 µM. With Ac-IDIYFK-NH2 [Ac-IDIYFK-NH2] the IC50 was 918 µM. Work on Ac-IIIWCE-NH2 [Ac-IIIWCE-NH2] yielded an IC50 of 5.51 µM. Work on Ac-IIIWFE-NH2 [Ac-IIIWFE-NH2] yielded an IC50 of 6.27 µM. Ac-IIIYCE-NH2 [Ac-IIIYCE-NH2] was tested, and the IC50 was 15.1 µM. With Ac-IIIYFE-NH2 [Ac-IIIYFE-NH2] the IC50 was 5.85 µM. Ac-IQIWCE-NH2 [Ac-IQIWCE-NH2] was tested, and the IC50 was 6.73 µM. In the case of Ac-IQIWFE-NH2 [Ac-IQIWFE-NH2], the IC50 is reported as 24 µM. In the case of Ac-IQIYCE-NH2 [Ac-IQIYCE-NH2], the IC50 is reported as 5.93 µM. With Ac-IQIYCK-NH2 [Ac-IQIYCK-NH2] the IC50 was 1310 µM. With Ac-IQIYFE-NH2 [Ac-IQIYFE-NH2] the IC50 was 19.9 µM. In the case of Ac-IVIFFA-NH2 [Ac-IVIFFA-NH2], the IC50 is reported as 33.3 µM. Ac-IVIFFC-NH2 [Ac-IVIFFC-NH2] gave an IC50 of 92.1 µM. Work on Ac-IVIFFD-NH2 [Ac-IVIFFD-NH2] yielded an IC50 of 12.6 µM. Work on Ac-IVIFFE-NH2 [Ac-IVIFFE-NH2] yielded an IC50 of 17.3 µM. For Ac-IVIFFF-NH2 [Ac-IVIFFF-NH2], the IC50 was 205 µM. Work on Ac-IVIFFG-NH2 [Ac-IVIFFG-NH2] yielded an IC50 of 29.9 µM. Compound Ac-IVIFFH-NH2 [Ac-IVIFFH-NH2] has an IC50 of 36.8 µM. Ac-IVIFFI-NH2 [Ac-IVIFFI-NH2] was tested, and the IC50 was 105 µM. With Ac-IVIFFK-NH2 [Ac-IVIFFK-NH2] the IC50 was > 310 µM. Ac-IVIFFL-NH2 [Ac-IVIFFL-NH2] showed an IC50 of 140 µM. Work on Ac-IVIFFM-NH2 [Ac-IVIFFM-NH2] yielded an IC50 of 25.9 µM. Ac-IVIFFN-NH2 [Ac-IVIFFN-NH2] gave an IC50 of 22.7 µM. For Ac-IVIFFP-NH2 [Ac-IVIFFP-NH2], the IC50 was 49 µM. For Ac-IVIFFQ-NH2 [Ac-IVIFFQ-NH2], the IC50 was 32.2 µM. In the case of Ac-IVIFFR-NH2 [Ac-IVIFFR-NH2], the IC50 is reported as > 299 µM. For Ac-IVIFFS-NH2 [Ac-IVIFFS-NH2], the IC50 was 27.4 µM. Work on Ac-IVIFFT-NH2 [Ac-IVIFFT-NH2] yielded an IC50 of 30.8 µM. Ac-IVIFFV-NH2 [Ac-IVIFFV-NH2] was tested, and the IC50 was 38.6 µM. With Ac-IVIFFW-NH2 [Ac-IVIFFW-NH2] the IC50 was 18.5 µM. Ac-IVIFFY-NH2 [Ac-IVIFFY-NH2] was tested, and the IC50 was 24.9 µM. Ac-IVILLA-NH2 [Ac-IVILLA-NH2] showed an IC50 of 22 µM. Ac-IVILLC-NH2 [Ac-IVILLC-NH2] was tested, and the IC50 was > 350 µM. Ac-IVILLD-NH2 [Ac-IVILLD-NH2] was tested, and the IC50 was 24.8 µM. Work on Ac-IVILLE-NH2 [Ac-IVILLE-NH2] yielded an IC50 of 10.8 µM. In the case of Ac-IVILLF-NH2 [Ac-IVILLF-NH2], the IC50 is reported as 27.7 µM. In the case of Ac-IVILLG-NH2 [Ac-IVILLG-NH2], the IC50 is reported as 25.5 µM. For Ac-IVILLH-NH2 [Ac-IVILLH-NH2], the IC50 was > 334 µM. Compound Ac-IVILLI-NH2 [Ac-IVILLI-NH2] has an IC50 of 35.9 µM. Ac-IVILLK-NH2 [Ac-IVILLK-NH2] was tested, and the IC50 was > 338 µM. Ac-IVILLL-NH2 [Ac-IVILLL-NH2] showed an IC50 of 123 µM. Work on Ac-IVILLM-NH2 [Ac-IVILLM-NH2] yielded an IC50 of 27 µM. Work on Ac-IVILLN-NH2 [Ac-IVILLN-NH2] yielded an IC50 of 17.9 µM. Ac-IVILLP-NH2 [Ac-IVILLP-NH2] was tested, and the IC50 was 36.7 µM. For Ac-IVILLQ-NH2 [Ac-IVILLQ-NH2], the IC50 was 12.2 µM. With Ac-IVILLR-NH2 [Ac-IVILLR-NH2] the IC50 was > 326 µM. Compound Ac-IVILLS-NH2 [Ac-IVILLS-NH2] has an IC50 of 21.5 µM. Compound Ac-IVILLT-NH2 [Ac-IVILLT-NH2] has an IC50 of 25.3 µM. Work on Ac-IVILLV-NH2 [Ac-IVILLV-NH2] yielded an IC50 of 98.6 µM. Ac-IVILLW-NH2 [Ac-IVILLW-NH2] gave an IC50 of 6.27 µM. Work on Ac-IVILLY-NH2 [Ac-IVILLY-NH2] yielded an IC50 of 12.9 µM. In the case of Ac-IVILTA-NH2 [Ac-IVILTA-NH2], the IC50 is reported as 19.4 µM. Work on Ac-IVILTC-NH2 [Ac-IVILTC-NH2] yielded an IC50 of 27.1 µM. In the case of Ac-IVILTE-NH2 [Ac-IVILTE-NH2], the IC50 is reported as 33 µM. Ac-IVILTF-NH2 [Ac-IVILTF-NH2] gave an IC50 of 13.4 µM. Compound Ac-IVILTG-NH2 [Ac-IVILTG-NH2] has an IC50 of 33.5 µM. Ac-IVILTH-NH2 [Ac-IVILTH-NH2] gave an IC50 of 76.1 µM. Ac-IVILTI-NH2 [Ac-IVILTI-NH2] was tested, and the IC50 was > 351 µM. With Ac-IVILTK-NH2 [Ac-IVILTK-NH2] the IC50 was > 344 µM. Ac-IVILTL-NH2 [Ac-IVILTL-NH2] showed an IC50 of 14 µM. Compound Ac-IVILTM-NH2 [Ac-IVILTM-NH2] has an IC50 of 12.3 µM. In the case of Ac-IVILTN-NH2 [Ac-IVILTN-NH2], the IC50 is reported as 19.6 µM. Work on Ac-IVILTP-NH2 [Ac-IVILTP-NH2] yielded an IC50 of 70.4 µM. In the case of Ac-IVILTQ-NH2 [Ac-IVILTQ-NH2], the IC50 is reported as 15.1 µM. For Ac-IVILTR-NH2 [Ac-IVILTR-NH2], the IC50 was > 331 µM. Ac-IVILTS-NH2 [Ac-IVILTS-NH2] showed an IC50 of 52.5 µM. Ac-IVILTT-NH2 [Ac-IVILTT-NH2] gave an IC50 of 62.9 µM. Ac-IVILTV-NH2 [Ac-IVILTV-NH2] was tested, and the IC50 was 30.1 µM. With Ac-IVILTW-NH2 [Ac-IVILTW-NH2] the IC50 was 14 µM. With Ac-IVILTY-NH2 [Ac-IVILTY-NH2] the IC50 was 23.6 µM. For Ac-MILWIE-NH2 [Ac-MILWIE-NH2], the IC50 was 13 µM. For Ac-VIQQFV-NH2 [Ac-VIQQFV-NH2], the IC50 was 20.7 µM. Work on Ac-WIQIFI-NH2 [Ac-WIQIFI-NH2] yielded an IC50 of 25.6 µM. DDEITF-NH2 [DDEITF-NH2] was tested, and the IC50 was 1630 µM. NDEIVF-NH2 [NDEIVF-NH2] showed an IC50 of 853 µM. For NDEIVI-NH2 [NDEIVI-NH2], the IC50 was 444 µM.

What follows are compounds tested on Human red blood cells (RBCs) (assay: Hemolytic activity). Settings: Tables 18-21.
Type: cell-based
Protocol: Each assay was carried out in 96-well culture tissue plates. Four wells per plate contain 125 μl of a non-peptide positive control (1% Triton in de-ionized water), and four wells per plate contain 125 μl of a control blank, phosphate buffered saline (PBS). The hemolytic peptide melittin was used as comparative control. The controls served to detect possible contamination and to calculate the percent hemolysis of each peptide. Human red blood cells (RBCs) were washed with PBS and centrifuged to separate them from the serum. The cells were then resuspended in PBS to a final suspension of 0.5% RBC. 125 μl of this suspension was added to the peptides and controls solution. The release of hemoglobin resulting from the cell lysis was determined by measuring the OD at 414 nm of 100 μl of the supernatant.
For CC[C@@H](C)[C@@H](NC(=O)[C@@H](CS)NC(=O)[C@H](CCCCN)NC(=O)OCC1c2ccccc2-c2ccccc21)C(=O)NCCCC(N)=O [(KFmoc)ci(gABA)-NH2] (Fmoc-K[dC][dI][GABA]-NH2), the “HD50 (concentration necessary to lyse 50% of the cells)” value was 54 µg/mL. For CC[C@@H](C)[C@@H](NC(=O)[C@@H](CS)NC(=O)[C@H](CCCCN)NC(=O)OCC1c2ccccc2-c2ccccc21)C(=O)N[C@@H](C)C(N)=O [(KFmoc)ciA-NH2] (Fmoc-K[dC][dI]A-NH2), the “HD50 (concentration necessary to lyse 50% of the cells)” value was 68 µg/mL. For CC[C@@H](C)[C@@H](NC(=O)[C@@H](CS)NC(=O)[C@H](CCCCN)NC(=O)OCC1c2ccccc2-c2ccccc21)C(=O)N[C@@H](CS)C(N)=O [(KFmoc)ciC-NH2] (Fmoc-K[dC][dI]C-NH2), the “HD50 (concentration necessary to lyse 50% of the cells)” value was 400 µg/mL. With CC[C@@H](C)[C@@H](NC(=O)[C@@H](CS)NC(=O)[C@H](CCCCN)NC(=O)OCC1c2ccccc2-c2ccccc21)C(=O)N[C@@H](Cc1ccccc1)C(N)=O [(KFmoc)ciF-NH2] (Fmoc-K[dC][dI]F-NH2) the “HD50 (concentration necessary to lyse 50% of the cells)” value was 295 µg/mL.
